Measurements taken from ChEMBL document CHEMBL1201862, “PubChem BioAssay data set” (2004).
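The compound was tested at five concentrations on cells cultured in 96-well plates, with a 48-hour exposure period. GI50 is the concentration that inhibits growth by half.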 The source made the active and inactive calls. Cut-off read from the data, not from the text of the source: active = GI50 up to about 1.1 µM and inactive = higher.

Assays:
Assay in all cases: NCI-60 cell line screen, 48 h
[1] = test system: ACHN
[2] = test system: CAKI-1
[3] = test system: HL-60
[4] = test system: HOP-62
[5] = test system: HT-29
[6] = test system: LOX IMVI
[7] = test system: LXFL 529
[8] = test system: NCI-H23
[9] = test system: OVCAR-8
[10] = test system: RPMI-8226
[11] = test system: SF-539
[12] = test system: SK-MEL-5
[13] = test system: SK-OV-3
[14] = test system: SN12C
[15] = test system: SW-620
[16] = test system: UACC-257
[17] = test system: HCT-116

Measured: GI50

CCOC(=O)C1C(=S)NC(=O)C1C#N (stereo not given)
inactive: [1] > 100 µM | [2] > 100 µM | [3] > 100 µM | [4] > 100 µM | [5] > 100 µM | [6] > 100 µM | [7] > 100 µM | [8] > 100 µM | [9] > 100 µM | [10] > 100 µM | [11] > 100 µM | [12] > 100 µM | [13] > 100 µM | [14] > 100 µM | [15] > 100 µM | [16] > 100 µM

CNCCCCN(C)/[N+]([O-])=N\O
inactive: [1] > 100 µM | [2] > 100 µM | [17] > 100 µM | [3] > 100 µM | [4] > 100 µM | [5] > 100 µM | [7] > 100 µM | [8] > 100 µM | [9] > 100 µM | [10] > 100 µM | [11] > 100 µM | [12] > 100 µM | [13] > 100 µM | [14] > 100 µM | [15] > 100 µM | [16] > 100 µM

C/C(=N\NC(N)=S)c1ccc2c(c1)OCO2
inactive: [1] > 100 µM | [2] > 100 µM | [17] > 100 µM | [3] 21.2 µM | [4] > 100 µM | [5] > 100 µM | [6] > 100 µM | [7] > 100 µM | [8] > 100 µM | [9] > 100 µM | [10] > 100 µM | [11] > 100 µM | [12] > 100 µM | [13] > 100 µM | [14] > 100 µM | [15] > 100 µM | [16] 99.1 µM

O=C(c1c(O)cc(O)cc1O)C1Cc2ccccc21 (stereo not given)
inactive: [1] > 100 µM | [2] 39.5 µM | [17] 86.5 µM | [3] 74 µM | [4] 45.2 µM | [5] > 100 µM | [6] > 100 µM | [7] > 100 µM | [9] 39.2 µM | [10] 58.1 µM | [11] 32.2 µM | [12] > 100 µM | [13] > 100 µM | [14] > 100 µM | [15] > 100 µM | [16] > 100 µM

COc1nc(NC2OC(COC(C)=O)C(OC(C)=O)C(OC(C)=O)C2OC(C)=O)c(/N=C(\C)C(C)=O)c(=O)n1C (stereo not given)
inactive: [1] > 100 µM | [2] > 100 µM | [17] > 100 µM | [3] > 100 µM | [4] > 100 µM | [5] > 100 µM | [6] > 100 µM | [7] > 100 µM | [8] > 100 µM | [9] > 100 µM | [10] > 100 µM | [11] > 100 µM | [12] > 100 µM | [13] > 100 µM | [14] > 100 µM | [15] > 100 µM | [16] > 100 µM

Fc1ccccc1C1SCc2nc3ccccc3n21 (stereo not given)
inactive: [1] 38.1 µM | [2] 44.8 µM | [17] 38.5 µM | [3] 11.9 µM | [5] > 100 µM | [7] 37.6 µM | [8] 33.2 µM | [9] 49.4 µM | [10] 25.5 µM | [11] > 100 µM | [12] 18.8 µM | [13] 34.8 µM | [14] 79.6 µM | [15] > 100 µM | [16] 33.7 µM

O=C1CCC2(c3ccc(Cl)cc3)Nc3ncccc3N12 (stereo not given)
inactive: [1] > 100 µM | [2] > 100 µM | [3] > 100 µM | [4] > 100 µM | [5] > 100 µM | [6] > 100 µM | [7] > 100 µM | [8] > 100 µM | [9] > 100 µM | [10] > 100 µM | [11] > 100 µM | [12] > 100 µM | [13] > 100 µM | [14] > 100 µM | [15] > 100 µM | [16] > 100 µM

CC(C)(c1cn(Cc2ccccc2)c2ccccc12)c1cn(Cc2ccccc2)c2ccccc12
inactive: [1] > 100 µM | [2] > 100 µM | [17] > 100 µM | [3] > 100 µM | [4] > 100 µM | [5] > 100 µM | [6] > 100 µM | [7] > 100 µM | [8] > 100 µM | [9] > 100 µM | [10] > 100 µM | [11] > 100 µM | [12] > 100 µM | [13] > 100 µM | [14] 1.7 µM | [15] > 100 µM

O=C(Cc1nc2ccccc2s1)Nc1ccc(Cl)cc1
inactive: [1] 56.5 µM | [2] > 100 µM | [17] > 100 µM | [3] > 100 µM | [4] > 100 µM | [5] > 100 µM | [6] 60.8 µM | [7] 44.2 µM | [8] > 100 µM | [9] > 100 µM | [11] > 100 µM | [12] 83.8 µM | [13] > 100 µM | [14] > 100 µM | [15] > 100 µM | [16] > 100 µM
